# Measured values published in US20260256724A1, “T[…] FOR […]” (Asklepion Pharmaceuticals LLC, priority 2022, published 2026).
# Entries after “also recorded” stand apart in the source; their conditions may differ.
# What was measured:
# [1] = system: pediatric patients exposed to cardiopulmonary bypass in congenital heart defect surgery; assay: Phase 3 double-blind, placebo-controlled trial of citrulline in cardiopulmonary bypass surgery, re-analysed by percent of intraoperative Dose 2 received; assay type: in vivo
# Procedure: A Phase 3 study was carried out as a double-blind, placebo-controlled trial to confirm the effect. The Phase 3 trial was performed in the US, EU, and Israel, using a modified intent-to-treat population (or modified full analysis set) of 190 patients, of whom 138 were in the US and 52 were ex-US.
# The starting point for the analysis was consideration of the complete modified full analysis set, consisting of all enrolled patients who completed the protocol. […] The Modified Full Analysis Set consists of all enrolled patients who completed the protocol.
# In the study protocol and accompanying pharmacy manual for both studies, citrulline dosing occurs in four distinct phases. Dose 1 is a loading dose added to the cardiopulmonary […] bypass fluids on a mg/kg basis. Dose 3 is a bolus administered following surgery on a mg/kg basis, and Dose 4 is an IV drip at 9 mg/kg/hour. No variation in administration of these doses was introduced during the course of the phase 3 study.
# In contrast, Dose 2, the intraoperative dosing designed to compensate for ultrafiltration, was subject to some variation. Ultrafiltration during cardiac surgery is not standardized, and therefore, it was not possible to completely standardize this dose. The perfusionist estimates the volume of ultrafiltrate removed, as well as the volume of cardioplegia solution. The perfusionist then calculates according to the study pharmacy manual instructions the amount of citrulline to be administered to compensate for the ultrafiltered citrulline in order to maintain a specified therapeutic level.
# Although the therapeutic target level was set at 100 micromolar during the phase 2 study, because of the potential for variation in Dose 2 (which is given intraoperatively to compensate for the routine ongoing ultrafiltration of circulating bypass fluids to reduce the circulating concentrations of inflammatory mediators) and the concern that some patients might inadvertently receive sub-therapeutic intraoperative levels, the target level for Dose 2 in the phase 3 study was increased to 200 micromolar. This was considered to be safe since no adverse effects of citrulline had been reported, even at substantially higher levels in medical use. In order to examine whether variation in Dose 2 could explain the results obtained, the actual dose received, shown as the percent of the targeted dose, was plotted against the composite variable results. Since placebos received no citrulline, they were plotted at the 0% level.
# For the Phase 3 trial, a target intraoperative dose of […] (Dose 2) was chosen to preclude an inadvertent drop below an efficacious level in any patient. The potential for variation in intraoperative dosing arises from the lack of standardization of cardiopulmonary bypass ultrafiltration techniques. […] Nonetheless, expansion of the study to a greater number of sites raised the concern that some sites might inadvertently underdose Dose 2. Given the known innocuous nature of L-citrulline, an endogenous amino acid that is given medicinally in doses an order of magnitude higher than this to urea cycle disorder patients, as well as the well-tolerated high endogenous concentrations of citrulline in hypercitrullinemia patients, there was no concern for erring on the high side of the presumed effective dose.
# To investigate the data in more detail, patients were stratified according to the dose level actually administered intraoperatively. The values obtained for duration of mechanical ventilation (MV), length of inotrope therapy (InoTx) and the composite primary (created for the SAP, based on the longer of the MV or InoTx) in any patient were segmented into groups based on the percent of the 200 μmol target dose actually received by the patient, by comparing patients who had received <65%, <75%, <85%, <95%, and >95% of the calculated target dose. […] Analysis was performed via two-sided Wilcoxon Rank Sum. […]
# [2] = system: nitric oxide production; assay: Nitric oxide production in a murine system, measured via NO metabolites; conditions: increasing citrulline concentration
# Excerpt: It is important to recall that citrulline is regenerated in the last step of NO production, making negative feedback by citrulline a reasonable hypothesis. Alternatively, an acute increase in NO production, which is known to have a negative feedback effect on NOS (Viziri and Wang, 1999) could explain the results. […] The negative clinical effects in the >95% group for the Phase 3 trial may thus result from one or more negative feedback mechanisms. The negative feedback could result from either the effect of NO or the citrulline itself creating feedback on the system.
# [3] = system: pediatric patients undergoing surgical procedures involving cardiopulmonary bypass; conditions: 22 patients (11 Tx, 11 PL); Dose 2 100 μmol; cited from earlier work
smiles,measurement,setting,value
"NC(=O)NCCC[C@H](N)C(=O)O [citrulline, L-citrulline]","Composite (longer of MV or InoTx), median","[1]; <65% of target Dose 2, p = 0.0040",1267.0 min
same,"PICU/NICU stay, median","[1]; <65% of target Dose 2, p = 0.0236",2 days
same,"Hospitalization, median","[1]; <65% of target Dose 2, p = 0.0953",4 days
same,Reduction of median Composite vs placebo,[1]; <75% of target Dose 2,42%
same,Reduction of median Inotrope vs placebo,[1]; <75% of target Dose 2,26%
same,Reduction of median Mechanical Ventilation vs placebo,[1]; <75% of target Dose 2,70%
same,"Composite (longer of MV or InoTx), median","[1]; <75% of target Dose 2, p = 0.0025",1267.0 min
same,"Vent (duration of mechanical ventilation), median","[1]; <75% of target Dose 2, p = 0.0129",170.0 min
same,"PICU/NICU stay, median","[1]; <75% of target Dose 2, p = 0.0295",2 days
same,"Hospitalization, median","[1]; <75% of target Dose 2, p = 0.1905",5 days
same,overall length of hospital stay vs placebo,[1]; <75% of the calculated Dose 2,not significantly different
same,"Composite (longer of MV or InoTx), median","[1]; <85% of target Dose 2, p = 0.0029",1283.5 min
same,"PICU/NICU stay, median","[1]; <85% of target Dose 2, p = 0.0332",2 days
same,"Hospitalization, median","[1]; <85% of target Dose 2, p = 0.1369",5 days
same,"Composite (longer of MV or InoTx), median","[1]; <95% of target Dose 2, p = 0.0033",1357.0 min
same,"Inotrope (duration of inotrope therapy), median","[1]; <95% of target Dose 2, p = 0.0242",1300.0 min
same,"PICU/NICU stay, median","[1]; <95% of target Dose 2, p = 0.1232",2 days
same,"Hospitalization, median","[1]; <95% of target Dose 2, p = 0.3169",5 days
same,"Hospitalization, median","[1]; >95% of target Dose 2, p = 0.0006",7 days
same,"PICU/NICU stay, median","[1]; >95% of target Dose 2, p = 0.0034",4 days
same,"Composite (longer of MV or InoTx), median","[1]; >95% of target Dose 2, p = 0.0114",3447.0 min
same,"composite variable, duration of mechanical ventilation and duration of inotrope therapy vs placebo",[1]; >95% of the targeted dose (>190 μmol),worse results when treated with citrulline than placebo patients
same,"Composite (longer of MV or InoTx), median","[1]; All Patients, p = 0.3398 vs placebo (placebo median 2204.0)",1640.0 min
same,"Hospitalization, median","[1]; All Patients, p = 0.3681 vs placebo (placebo median 5)",5 days
same,"PICU/NICU stay, median","[1]; All Patients, p = 0.8484 vs placebo (placebo median 3)",3 days
same,reduction in the length of stay in the PICU or NICU following surgery,[1]; Dose 2 at levels <95% of target,statistically significant reduction of one day
same,"composite variable, duration of mechanical ventilation and duration of inotrope therapy vs placebo","[1]; Dose 2 at levels <95% of target, two-sided Wilcoxon Rank Sum",Statistically significant reduction of all variables; also recorded: highly significant reductions
same,"composite endpoint, treated vs placebo",[1]; complete modified full analysis set,showed no difference
same,production of NO as measured via NO metabolites,[2],"increasing levels of citrulline initially facilitate nitric oxide production; however, continued increase in citrulline concentration results in diminished production of NO"
same,primary parameters (duration of MV & InoTx) vs placebo,[3],near-significance
